In patent US7109197B2, “N-phenyl-4-(4-pyridyl)-2-pyrimidineamine derivatives” (Syngenta Crop Protection, Inc., priority 2000, dated 2006):

What was measured:
Type in all cases: in vivo
[1] = tested on: Pyrenophora teres (Helminthosporium); test: Assay B-10: Effect against Pyrenophora teres (Helminthosporium)/barley (net blotch on barley); details: Pyrenophora teres on barley cv. Regina; 0.02% active substance, spray
Method: Assay B-10: Effect Against Pyrenophora teres (Helminthosporium)/Barley (Net Blotch on Barley) 1 week old barley plants cv. Regina are treated with a formulated testcompound (0.02% active substance) in a spray chamber. Two days after application barley plants are inoculated by spraying a spore suspension (3×10^4 conidia/ml) on the test plants. After an incubation period of 2 days at 20° C. and 95% r.h. plants are kept for 2 days at 20° C. and 60% r.h. in a greenhouse. The disease incidence is assessed 4 days after inoculation.

[2] = tested on: Septoria nodorum; test: Assay B-12: Effect against Septoria nodorum/wheat (Septoria leaf spot on wheat); details: Septoria nodorum on wheat cv. Arina; 0.02% active substance, spray
Method: Assay B-12: Effect Against Septoria nodorum/Wheat (Septoria Leaf Spot on Wheat) 1 week old wheat plants cv. Arina are treated with a formulated test compound (0.02% active substance) in a spray chamber. One day after application wheat plants are inoculated by spraying a spore suspension (5×10^5 conidia/ml) on the test plants. After an incubation period of 1 day at 20° C. and 95% r.h. plants are kept for 10 days at 20° C. and 60% r.h. in a greenhouse. The disease incidence is assessed 11 days after inoculation.

[3] = tested on: Botrytis cinerea; test: Assay B-8: Effect against Botrytis cinerea/tomato (Botrytis on tomatoes); details: Botrytis cinerea on tomato cv. Roter Gnom; 0.02% active substance, spray
Method: Assay B-8: Effect Against Botrytis cinerea/Tomato (Botrytis on Tomatoes) 4 week old tomato plants cv. Roter Gnom are treated with the formulated testcompound 0.02% active substance) in a spray chamber. Two days after application tomato plants are inoculated by spraying a spore suspension (1×10^5 conidia/ml) on the test plants. After an incubation period of 4 days at 20° C. and 95% r. h. in a greenhouse the disease incidence is assessed.

[4] = tested on: Botrytis cinerea; test: Assay B-7: Botrytis cinerea/grape (Botrytis on grapes); details: Botrytis cinerea on grape seedlings cv. Gutedel; 0.02% active substance, spray
Method: Assay B-7: Botrytis cinerea/Grape (Botrytis on Grapes) 5 week old grape seedlings cv. Gutedel are treated with the formulated testcompound (0.02% active substance) in a spray chamber. Two days after application grape plants are inoculated by spraying a spore suspension (1×10^6 conidia/ml) on the test plants. After an incubation period of 4 days at 21° C. and 95% r. h. in a greenhouse the disease incidence is assessed.

How did the B10 activity [1] turn out when NCCNc1cc(-c2ccnc(Nc3cccc(Cl)c3)n2)ccn1 [Compound 1] was run?
The B10 activity was “+ (the activity observed in the corresponding test system is 70% or more)”.

Clc1cccc(Nc2nccc(-c3ccnc(NC4CCOC4)c3)n2)c1 (stereo not shown) [Compound 2] was tested. Which B10 activity [1] did it give?
Its B10 activity is “+ (the activity observed in the corresponding test system is 70% or more)”.

What about the B12 activity [2] of the same compound?
The B12 activity was “+ (the activity observed in the corresponding test system is 70% or more)”.

O=C(O)CNc1cc(-c2ccnc(Nc3cccc(Cl)c3)n2)ccn1 [Compound 3] was tested. Which B10 activity [1] did it give?
Its B10 activity is “+ (the activity observed in the corresponding test system is 70% or more)”.

And the B12 activity [2]?
The B12 activity was “+ (the activity observed in the corresponding test system is 70% or more)”.

And the B8 activity [3]?
Its B8 activity is “+ (the activity observed in the corresponding test system is 70% or more)”.

CC(CCn1ccnc1)Nc1cc(-c2ccnc(Nc3cccc(Cl)c3)n2)ccn1 (stereo not shown) [Compound 16] was tested. Which B10 activity [1] did it give?
The B10 activity was “+ (the activity observed in the corresponding test system is 70% or more)”.

What about the B12 activity [2] of the same compound?
Its B12 activity is “+ (the activity observed in the corresponding test system is 70% or more)”.

What about the B8 activity [3] of the same compound?
Its B8 activity is “+ (the activity observed in the corresponding test system is 70% or more)”.

With CC(CCN(C)C)Nc1cc(-c2ccnc(Nc3cccc(Cl)c3)n2)ccn1 (stereo not shown) [Compound 19] as the compound, how does the B8 activity [3] read?
Its B8 activity is “+ (the activity observed in the corresponding test system is 70% or more)”.

How did the B10 activity [1] turn out when CCOCCNc1cc(-c2ccnc(Nc3cccc(Cl)c3)n2)ccn1 [Compound 26] was run?
The B10 activity was “+ (the activity observed in the corresponding test system is 70% or more)”.

And the B12 activity [2]?
Its B12 activity is “+ (the activity observed in the corresponding test system is 70% or more)”.

And the B7 activity [4]?
The B7 activity was “+ (the activity observed in the corresponding test system is 70% or more)”.

And the B8 activity [3]?
Its B8 activity is “+ (the activity observed in the corresponding test system is 70% or more)”.

With CCCC(CO)Nc1cc(-c2ccnc(Nc3cccc(Cl)c3)n2)ccn1 (stereo not shown) [Compound 27] as the compound, how does the B10 activity [1] read?
The B10 activity was “+ (the activity observed in the corresponding test system is 70% or more)”.

What about the B12 activity [2] of the same compound?
Its B12 activity is “+ (the activity observed in the corresponding test system is 70% or more)”.

And the B7 activity [4]?
Its B7 activity is “+ (the activity observed in the corresponding test system is 70% or more)”.

And the B8 activity [3]?
Its B8 activity is “+ (the activity observed in the corresponding test system is 70% or more)”.

With CC(CCNc1cc(-c2ccnc(Nc3cccc(Cl)c3)n2)ccn1)n1ccnc1 (stereo not shown) [Compound 36] as the compound, how does the B10 activity [1] read?
Its B10 activity is “+ (the activity observed in the corresponding test system is 70% or more)”.

Which B10 activity [1] does the source give for NCCCNc1cc(-c2ccnc(Nc3cccc(Cl)c3)n2)ccn1 [Compound 42] here?
The B10 activity was “+ (the activity observed in the corresponding test system is 70% or more)”.

What about the B12 activity [2] of the same compound?
The B12 activity was “+ (the activity observed in the corresponding test system is 70% or more)”.

What about the B8 activity [3] of the same compound?
Its B8 activity is “+ (the activity observed in the corresponding test system is 70% or more)”.

With CS(=O)(=O)O.NCCCNc1cc(-c2ccnc(Nc3cccc(Cl)c3)n2)ccn1 [Compound 48] as the compound, how does the B10 activity [1] read?
The B10 activity was “+ (the activity observed in the corresponding test system is 70% or more)”.

What about the B12 activity [2] of the same compound?
Its B12 activity is “+ (the activity observed in the corresponding test system is 70% or more)”.

And the B8 activity [3]?
Its B8 activity is “+ (the activity observed in the corresponding test system is 70% or more)”.

How did the B10 activity [1] turn out when CCC(COC(C)=O)Nc1cc(-c2ccnc(Nc3cccc(Cl)c3)n2)ccn1 (stereo not shown) [Compound 51] was run?
The B10 activity was “+ (the activity observed in the corresponding test system is 70% or more)”.

And the B12 activity [2]?
The B12 activity was “+ (the activity observed in the corresponding test system is 70% or more)”.

How did the B10 activity [1] turn out when CC(=O)OCCNc1cc(-c2ccnc(Nc3cccc(Cl)c3)n2)ccn1 [Compound 52] was run?
The B10 activity was “+ (the activity observed in the corresponding test system is 70% or more)”.

And the B12 activity [2]?
Its B12 activity is “+ (the activity observed in the corresponding test system is 70% or more)”.

How did the B8 activity [3] turn out when CCCC(COC(C)=O)Nc1cc(-c2ccnc(Nc3cccc(Cl)c3)n2)ccn1 (stereo not shown) [Compound 53] was run?
Its B8 activity is “+ (the activity observed in the corresponding test system is 70% or more)”.

Which B10 activity [1] does the source give for CCCCC(=O)Nc1cc(-c2ccnc(Nc3cccc(Cl)c3)n2)ccn1 [Compound 62] here?
The B10 activity was “+ (the activity observed in the corresponding test system is 70% or more)”.

And the B12 activity [2]?
The B12 activity was “+ (the activity observed in the corresponding test system is 70% or more)”.

CC(CCc1ccccn1)Nc1cc(-c2ccnc(Nc3cccc(Cl)c3)n2)ccn1 (stereo not shown) [Compound 71] was tested. Which B10 activity [1] did it give?
The B10 activity was “+ (the activity observed in the corresponding test system is 70% or more)”.

And the B12 activity [2]?
The B12 activity was “+ (the activity observed in the corresponding test system is 70% or more)”.

For C[S+]([O-])CCNc1cc(-c2ccnc(Nc3cccc(Cl)c3)n2)ccn1 (stereo not shown) [Compound 74], which B12 activity [2] is on record?
The B12 activity was “+ (the activity observed in the corresponding test system is 70% or more)”.

Which B10 activity [1] does the source give for CC(O)CNc1cc(-c2ccnc(Nc3cccc(Cl)c3)n2)ccn1 (stereo not shown) [Compound 76] here?
Its B10 activity is “+ (the activity observed in the corresponding test system is 70% or more)”.

And the B12 activity [2]?
Its B12 activity is “+ (the activity observed in the corresponding test system is 70% or more)”.

Clc1cccc(Nc2nccc(-c3ccnc(NCc4ccco4)c3)n2)c1 [Compound 78] was tested. Which B8 activity [3] did it give?
Its B8 activity is “+ (the activity observed in the corresponding test system is 70% or more)”.

Clc1cccc(Nc2nccc(-c3ccnc(NCc4ccccn4)c3)n2)c1 [Compound 79] was tested. Which B10 activity [1] did it give?
The B10 activity was “+ (the activity observed in the corresponding test system is 70% or more)”.

What about the B8 activity [3] of the same compound?
The B8 activity was “+ (the activity observed in the corresponding test system is 70% or more)”.

How did the B10 activity [1] turn out when Clc1cccc(Nc2nccc(-c3ccnc(NCC4CCOC4)c3)n2)c1 (stereo not shown) [Compound 84] was run?
Its B10 activity is “+ (the activity observed in the corresponding test system is 70% or more)”.

What about the B12 activity [2] of the same compound?
Its B12 activity is “+ (the activity observed in the corresponding test system is 70% or more)”.

And the B8 activity [3]?
Its B8 activity is “+ (the activity observed in the corresponding test system is 70% or more)”.

Which B10 activity [1] does the source give for COC(CNc1cc(-c2ccnc(Nc3cccc(Cl)c3)n2)ccn1)OC [Compound 87] here?
Its B10 activity is “+ (the activity observed in the corresponding test system is 70% or more)”.

And the B12 activity [2]?
Its B12 activity is “+ (the activity observed in the corresponding test system is 70% or more)”.

What does the source list for Clc1cccc(Nc2nccc(-c3ccnc(NCCc4ccccn4)c3)n2)c1 [Compound 90]?
B10 activity [1]: + (the activity observed in the corresponding test system is 70% or more); B8 activity [3]: + (the activity observed in the corresponding test system is 70% or more)

What does the source list for COCN(C)c1cc(-c2ccnc(Nc3cccc(Cl)c3)n2)ccn1 [Compound 91]?
B10 activity [1]: + (the activity observed in the corresponding test system is 70% or more); B12 activity [2]: + (the activity observed in the corresponding test system is 70% or more)

Which B10 activity [1] does the source give for O=C(Nc1cc(-c2ccnc(Nc3cccc(Cl)c3)n2)ccn1)C(F)(F)C(F)(F)F [Compound 93] here?
Its B10 activity is “+ (the activity observed in the corresponding test system is 70% or more)”.

What about the B7 activity [4] of the same compound?
Its B7 activity is “+ (the activity observed in the corresponding test system is 70% or more)”.

And the B8 activity [3]?
Its B8 activity is “+ (the activity observed in the corresponding test system is 70% or more)”.

For Clc1cccc(Nc2nccc(-c3ccnc(NCCCOc4ncccn4)c3)n2)c1 [Compound 94], which B10 activity [1] is on record?
The B10 activity was “+ (the activity observed in the corresponding test system is 70% or more)”.

And the B8 activity [3]?
The B8 activity was “+ (the activity observed in the corresponding test system is 70% or more)”.

With CN(C)C=Nc1cc(-c2ccnc(Nc3cccc(Cl)c3)n2)ccn1 [Compound 97] as the compound, how does the B10 activity [1] read?
The B10 activity was “+ (the activity observed in the corresponding test system is 70% or more)”.

What about the B12 activity [2] of the same compound?
Its B12 activity is “+ (the activity observed in the corresponding test system is 70% or more)”.

And the B8 activity [3]?
The B8 activity was “+ (the activity observed in the corresponding test system is 70% or more)”.

With CCN(COC)c1cc(-c2ccnc(Nc3cccc(Cl)c3)n2)ccn1 [Compound 98] as the compound, how does the B10 activity [1] read?
Its B10 activity is “+ (the activity observed in the corresponding test system is 70% or more)”.

Which B8 activity [3] does the source give for CO[Si](CCCNc1cc(-c2ccnc(Nc3cccc(Cl)c3)n2)ccn1)(OC)OC [Compound 100] here?
Its B8 activity is “+ (the activity observed in the corresponding test system is 70% or more)”.

How did the B10 activity [1] turn out when Clc1cccc(Nc2nccc(-c3ccnc(NCc4cccnc4)c3)n2)c1 [Compound 102] was run?
Its B10 activity is “+ (the activity observed in the corresponding test system is 70% or more)”.

And the B8 activity [3]?
The B8 activity was “+ (the activity observed in the corresponding test system is 70% or more)”.

How did the B10 activity [1] turn out when CCC(=O)OCCCNc1cc(-c2ccnc(Nc3cccc(Cl)c3)n2)ccn1 [Compound 106] was run?
The B10 activity was “+ (the activity observed in the corresponding test system is 70% or more)”.

What about the B12 activity [2] of the same compound?
Its B12 activity is “+ (the activity observed in the corresponding test system is 70% or more)”.

And the B8 activity [3]?
Its B8 activity is “+ (the activity observed in the corresponding test system is 70% or more)”.
